Experimental findings from patent US20250375422A1, “METHOD FOR TREATING CANCERS” (Acura Nanomedicine Corporation, priority 2019, published 2025) are described below.

The series concerns BxPC-3 cells. The series is described as follows: MTT assay, cell viability of pancreatic cancer BxPC-3 cells. It is filed as cell-based, human. The procedure:
Cell lines used in the present disclosure include human pancreatic cancer cell lines BxPC-3, Mia-Paca-2/R (gemcitabine resistant cell line), and Panc-1/R (gemcitabine resistant cell line); human liver cancer cell lines SK-Hep-1 and Hep 3B; and human brain glioblastoma cell line GBM8401, which is a TMZ-resistant cell line. Cells were cultured in Dulbecco's modified Eagle media (DMEM) supplemented with 10% heat inactivated fetal bovine serum (FBS), 50 units/mL penicillin G, 50 μg/mL streptomycin (pH 7.4), and the cells were maintained in humidified environment comprising 5% CO2/95% air at 37° C.
The absorbance of the solution at 570 nm was measured by spectrophotometer.

Take `CCN(CCO)CCCC(C)Nc1ccnc2cc(Cl)ccc12` (centres unmarked) [HCQ, hydroxychloroquine]: the “cell viability of BxPC-3 cells” value (HCQ (20 or 50 μM) alone) is “slightly and/or unaffected”.

Turning to `COC(=O)Nc1nc2ccc(C(=O)c3ccccc3)cc2[nH]1` [MBZ, mebendazole], the viability at 5 µM (Homo sapiens, BXPC-3, MBZ (5 μM)) was approximately 60%.

As usually defined, the viability is a read-out of living cells in per cent, often relative to untreated cells.
